Test results reported in patent US20170165254A1, “TREATING FLAVIVIRUS INFECTIONS WITH AMODIAQUINE AND DERIVATIVES THEREOF” (GEORGETOWN UNIVERSITY, priority 2014, published 2017).
Structures can show the parent of a compound that is named as a salt. Where two headings read alike, the source gives them in different places.

Experiments:
[1] = tested on: DENV2 replicon; assay: microbe, parasite or virus in culture; assay type: cell-based, Dengue Virus 2 (DENV2); details: for inhibition at 50 µM: DENV2, BHK-21, read-out: % Replicon Inhibition (Means ± SEM) DENV2
[2] = tested on: WNV replicon; assay: microbe, parasite or virus in culture; assay type: cell-based, West Nile virus (WNV); details: for inhibition at 50 µM: read-out: % Replicon Inhibition (Means ± SEM) WNV; for EC50: read-out: WNV replicon EC50
[3] = tested on: DENV2; assay: Inhibition of DENV2 infectivity in BHK-21 cells, plaque assay of supernatants; assay type: cell-based, Dengue Virus 2 (DENV2); details: for EC90: read-out: EC90 for inhibition of DENV2 infectivity (plaque assay)
Method: BHK-21 cells were seeded into 12-well plates (10^5 cells/well) and incubated overnight at 37° C. Cells were infected with DENV2 at a multiplicity of infection (MOI) of 0.01 or 1 as indicated. After infection, cells were washed with PBS and incubated with 1.5 mL of MEM supplemented with 2% FBS, 100 I.U./mL penicillin/100 μg/mL streptomycin (referred to as maintenance medium). AQ, at indicated concentrations, was added and cells were incubated at 37° C. for various time points as indicated. DMSO (1%), as a no-compound control (100% infection), and mock-infected control using medium alone (0% infection) were included. Supernatants were collected from the time point experiments and the virus titers determined by plaque assay.
(§1) BHK-21 cells were seeded at ˜10^5 cells/well (12-well plate) or ˜5×10^4 cells/well (24-well plate) and then incubated at 37° C. until reaching 90% confluence. Cells were infected with the supernatants collected from experiments of AQ treatments. Cells were washed with PBS, and incubated with 1.5 mL of overlay medium (maintenance medium containing 1% methylcellulose). The plates were incubated for 3-4 days at 37° C. under 5% CO2. After plaques became visually apparent by microscopy, cells were fixed and stained with 11.1% formaldehyde, 4.75% isopropanol, and 1% crystal violet for 30 minutes. The number of plaque forming units (PFU) per mL was determined.
BHK-21 cells were seeded as described above. AQ, at indicated concentrations in 1% DMSO, was added to DENV2 (MOI of 0.01 or 1)-infected cells during adsorption and/or post-infection. Supernatants were collected at indicated time points post-infection for plaque assays.

[4] = tested on: DENV2; assay: DENV2 intracellular and extracellular RNA levels by qPCR in BHK-21 cells; assay type: cell-based, Dengue Virus 2 (DENV2); details: AQ 5 μM, 72 hours, p<0.001 vs untreated
[5] = tested on: DENV2; assay: Time-course analysis on DENV2 infectivity (indirect plaque assay); assay type: cell-based, Dengue Virus 2 (DENV2)
Method: as §1
BHK-21 cells were grown in 6-well plates (˜2.5×10^5 cells/well) and were infected with DENV2 at a MOI of 0.01 in the maintenance medium. Cells were washed with PBS and incubated with 3 mL of maintenance medium. AQ at indicated concentrations was added and cells were incubated at 37° C. Supernatants were sampled as indicated and stored at −70° C. for plaque assays.

[6] = tested on: DENV2; assay: Direct plaque assay, AQ present only during adsorption (viral entry); assay type: cell-based, Dengue Virus 2 (DENV2)
[7] = tested on: DENV2; assay: Order of addition assay; assay type: cell-based, Dengue Virus 2 (DENV2); details: AQ 5 μM added post-infection; 48 and 72 hours; MOI of 1
[8] = tested on: DENV2; assay: Time of addition assay; assay type: cell-based, Dengue Virus 2 (DENV2)
[9] = target: T1, Rluc enzyme (Renilla reniformis, UniProt P27652); assay type: biochemical; details: added to BHK-21/DENV2 replicon cell lysate
T1 sequence (P27652 1-311): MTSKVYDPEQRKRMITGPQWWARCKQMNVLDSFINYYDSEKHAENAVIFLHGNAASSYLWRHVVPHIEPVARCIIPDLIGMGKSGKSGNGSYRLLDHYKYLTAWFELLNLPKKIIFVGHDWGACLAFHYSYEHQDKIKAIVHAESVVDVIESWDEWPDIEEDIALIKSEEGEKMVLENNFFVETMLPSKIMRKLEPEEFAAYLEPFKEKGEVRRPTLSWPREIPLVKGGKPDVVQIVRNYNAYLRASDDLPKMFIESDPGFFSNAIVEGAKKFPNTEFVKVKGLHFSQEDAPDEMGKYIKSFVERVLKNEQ

[10] = tested on: Vero cells; assay: Cytotoxicity assay, Vero cells; details: read-out: WNV replicon CC50; Table 2; unit inferred
[11] = tested on: BHK-21 cells; assay: Cytotoxicity assay, BHK-21 cells; details: read-out: DENV replicon CC50; Table 2; unit inferred
[12] = 50 μM in 1% DMSO, Vero/WNV replicon cells

For `CCN(CC)CCCC(C)Nc1ccnc2cc(Cl)ccc12` (centres unmarked) [chloroquine (CQ), chloroquine], the “inhibition of DENV2 replicon replication (in words)” value [1] was “did not inhibit DENV2 replicon replication”, the inhibition at 50 µM ([1]; Dengue virus) was 54.8 ± 4.5% and the inhibition at 50 µM ([2]; West Nile virus, Vero) was 18.5 ± 2.8%. It also gave an EC90 ([3]; Dengue virus, DENV2, BHK-21, 72 h) of 5.04 ± 0.72 µM.

For chloroquine sulfate, the “% Replicon Inhibition (Means ± SEM) DENV2” value [1] was 28.1 ± 3.6% and the “% Replicon Inhibition (Means ± SEM) WNV” value [2] was “— (key: —: “-” refers to no inhibition)”.

For `C/C=C1\CN2CC[C@H]1C[C@H]2[C@H](O)c1ccnc2ccc(O)cc12` [apoquinine], the “% Replicon Inhibition (Means ± SEM) DENV2” value [1] was “— (key: —: “-” refers to no inhibition)” and the “% Replicon Inhibition (Means ± SEM) WNV” value [2, 12] was 33.7 ± 2.9%.

For `CCN(CC)Cc1cc(Nc2ccnc3cc(Cl)ccc23)ccc1O` [AQ, 4-[(7-chloroquinolin-4-yl)amino]-2(diethylaminomethyl)phenol], the “% Replicon Inhibition (Means ± SEM) DENV2” value [1] was 76.3 ± 1.6%, the inhibition at 50 µM ([1]; Dengue virus) was 76.3 ± 1.6% and the EC50 ([1]; Dengue virus, DENV2, BHK-21, read-out: DENV replicon EC50) was 10.8 ± 1.43 µM. For the same compound, the EC50 ([1]; Dengue virus, DENV2, BHK-21, read-out: EC50 in BHK-21/DENV2 replicon cells) was 7.41 ± 1.09 µM, the inhibition at 50 µM ([2]; West Nile virus, Vero) was 96.3 ± 0.39% and the EC50 ([2]; West Nile virus, Vero) was 14.6 ± 2.21 µM. The “virus infectivity (PFU/mL of supernatant) by plaque assay” value ([3]; AQ 5 μM, 72 hours, BHK-21 cells) was “significant reduction”, the EC90 ([3]; Dengue virus, DENV2, BHK-21, 96 h) was 2.71 ± 0.85 µM and the EC50 ([3]; Dengue virus, DENV2, MOI of 1, supernatants at 72 hours, BHK-21 cells, read-out: EC50 for inhibition of extracellular release of DENV2 (plaque assay)) was 1.08 ± 0.09 µM. For the same compound, the EC90 ([3]; Dengue virus, DENV2, MOI of 1, supernatants at 72 hours, BHK-21 cells) was 2.69 ± 0.4 µM, the “DENV2 replication, intracellular and extracellular RNA levels (qRT-PCR)” value [4] was “effectively inhibited DENV2 replication” and the “inhibition of DENV2 infectivity, indirect plaque assay” value ([5]; AQ 5 μM present during and up to 96 hours post-infection) was “significant inhibition”. The plaque formation reduced ([5]; AQ 5 μM, MOI of 0.01, added during adsorption and post-infection) was no less than 90%, the “virus titers (PFU/mL) over time course” value ([5]; AQ 1, 5, 10, 25 μM, MOI of 0.01, p<0.05) was “reduced significantly in a dose-dependent manner” and the “plaque titer versus DMSO control, direct plaque assay” value ([6]; AQ 5 μM only during adsorption, MOI of 0.01) was “not significantly different”. For the same compound, the “virus titer reduced, direct plaque assay” value ([6]; AQ 10 μM during adsorption) was 69.23±1.57%, the “virus titer reduced, direct plaque assay” value ([6]; AQ 25 μM during adsorption) was 82.70±2.48% and the “reduction of plaque titer from DMSO control” value [7] was no less than 90%. The plaque reduction ([8]; AQ 5 μM added as late as 15 hours post-infection, supernatants at 72 hours, MOI of 1) was no less than 90%, the “inhibitory effect when added late” value ([8]; AQ 5 μM added at 21 hours post-infection and later) was “lost its inhibitory effect” and the “inhibition of DENV2 infection when added early” value ([8]; AQ 5 μM added up to 12 hours post-infection, supernatants at 48 hours) was “inhibited DENV2 infection steadily”. For the same compound, the “interference with Rluc enzyme activity” value [9] was “did not interfere”, the CC50 [10] was 24.4 ± 2.49 µM and the CC50 [11] was 80 ± 6.27 µM.

With `CCN(CC)Cc1cc(Nc2c(C3CCCC3)c(C)nc3cc(Cl)ccc23)ccc1O` [AQ derivative 4] the “% Replicon Inhibition (Means ± SEM) DENV2” value [1] was 99.99 ± 0.0%, the “inhibition of DENV2 replicon replication (in words)” value [1] was “strong inhibition” and the EC50 ([1]; read-out: DENV replicon EC50) was 15.4 ± 1.31 µM. The “% Replicon Inhibition (Means ± SEM) WNV” value [2, 12] was 99.8 ± 0.01%, the EC50 ([2]; Table 2, unit inferred) was 3.31 ± 0.73 µM and the “inhibition of WNV replicon replication (in words)” value ([2]; Vero/WNV replicon cells, FIG. 1B) was “strong inhibition”.

Compound `C=C[C@H]1C[N@@]2CC[C@H]1C[C@H]2[C@H](O)c1ccnc2ccc(OC)cc12` [quinine, hydrobromide hydrate] has an inhibition at 50 µM ([1]; Dengue virus) of 2.8 ± 0.25% and an inhibition at 50 µM ([2]; West Nile virus, Vero) of 34.9 ± 6.7%.

`CC(CCCN(CCCl)CCCl)Nc1ccnc2cc(Cl)ccc12.O=C(O)c1cc2ccccc2c(Cc2c(O)c(C(=O)O)cc3ccccc23)c1O` [chloroquine mustard pamoate] was tested, and the “% Replicon Inhibition (Means ± SEM) DENV2” value [1] was 47.5 ± 4.9% and the “% Replicon Inhibition (Means ± SEM) WNV” value [2] was 10.35 ± 4.1%.

`COc1cc(NC(C)CCCN)c2ncccc2c1` (centres unmarked) [primaquine] showed an inhibition at 50 µM ([1]; Dengue virus) of less than 0% and an inhibition at 50 µM ([2]; West Nile virus, Vero) of less than 0%.
